# Data taken from US5834453A, “Methods for the manufacture and use of antimicrobial sterol conjugates” (Lehigh University, priority 1997, dated 1998).
# Entries after “also recorded” stand apart in the source; their conditions may differ. Where two headings read alike, the source gives them in different places.
# Tests used:
# [1] = test system: various groups of microorganisms; assay: Antimicrobial activity (MIC), all microorganisms tested; format: cell-based; conditions: for MIC: 24 h, read-out: MICs against the various groups of microorganisms tested
# Method: (§1) The antimicrobial activity of the compounds according to the present invention were compared with the results obtained for squalamine as reported in Proc. Nat. Acad. Sci. USA 90:1354 (1993), supra, the disclosure of which is incorporated in toto herein. The data reported in the following table is the minimum inhibitory concentration (MIC) required for complete inhibition of microbial growth. The MIC was determined utilizing known micro-broth dilution methods in which inocula of 10^6 /ml of the test organism were incubated in 0.5× trypticase soy broth at 35° C. for 24 hours. MIC's were also tested under various pH conditions, with calcium chloride or magnesium chloride, or with immobilized horse serum.
# (§2) The numbers in parentheses contained in the table correspond to accession numbers with the American Type Culture Collection (reference strains were either obtained from the American Type Culture Collection or from the Microbiology Laboratory at Memorial Sloan-Kettering Cancer Center; Bacterial strains were maintained on Columbia 5% sheep blood agar plates, and fungi were maintained on Sabouraud Dextrose agar plates).
# E. faecium (T6480-9) = assay: MIC, micro-broth dilution; format: cell-based; conditions: Enterococcus faecium, 35° C., 24 hours, read-out: ANTIMICROBIAL ACTIVITY (MIC)
# Method: as §1, §2
# C. neoformans (M68979) = assay: MIC, micro-broth dilution; format: cell-based; conditions: Cryptococcus neoformans, 24 h, read-out: ANTIMICROBIAL ACTIVITY (MIC)
# Method: as §1, §2
# S. aureus (29213) = assay: MIC, micro-broth dilution; format: cell-based; conditions: Staphylococcus aureus, read-out: ANTIMICROBIAL ACTIVITY (MIC)
# Method: as §1, §2
# K. pneumoniae (13883) = assay: MIC, micro-broth dilution; format: cell-based; conditions: Klebsiella pneumoniae, 24 h, read-out: ANTIMICROBIAL ACTIVITY (MIC)
# Method: as §1, §2
# S. marcescens (13880) = assay: MIC, micro-broth dilution; format: cell-based; conditions: for MIC: Serratia marcescens, 24 h, read-out: ANTIMICROBIAL ACTIVITY (MIC)
# Method: as §1, §2
# S. pyrogenes (19615) = assay: MIC, micro-broth dilution; format: cell-based; conditions: 24 h, read-out: ANTIMICROBIAL ACTIVITY (MIC)
# Method: as §1, §2
# S. epidermidis (12228) = assay: MIC, micro-broth dilution; format: cell-based; conditions: Staphylococcus epidermidis, 35° C., 24 hours, read-out: ANTIMICROBIAL ACTIVITY (MIC)
# Method: as §1, §2
# C. neoformans (90012) = assay: MIC, micro-broth dilution; format: cell-based; conditions: Cryptococcus neoformans, 24 h, read-out: ANTIMICROBIAL ACTIVITY (MIC)
# Method: as §1, §2
# P. aeruginosa (2853) = assay: MIC, micro-broth dilution; format: cell-based; conditions: Pseudomonas aeruginosa, 24 h, read-out: ANTIMICROBIAL ACTIVITY (MIC)
# Method: as §1, §2
# A. fumigatus (H1120) = assay: MIC, micro-broth dilution; format: cell-based; conditions: Aspergillus fumigatus, 35° C., 24 hours, read-out: ANTIMICROBIAL ACTIVITY (MIC)
# Method: as §1, §2
# S. agalactiae (13813) = assay: MIC, micro-broth dilution; format: cell-based; conditions: Streptococcus agalactiae, 35° C., 24 hours, read-out: ANTIMICROBIAL ACTIVITY (MIC)
# Method: as §1, §2
# C. albicans (90028) = assay: MIC, micro-broth dilution; format: cell-based; conditions: Candida albicans, 35° C., 24 hours, read-out: ANTIMICROBIAL ACTIVITY (MIC)
# Method: as §1, §2
# P. aeruginosa (10145) = assay: MIC, micro-broth dilution; format: cell-based; conditions: Pseudomonas aeruginosa, 35° C., 24 hours, read-out: ANTIMICROBIAL ACTIVITY (MIC)
# Method: as §1, §2
# S. pneumoniae (6305) = assay: MIC, micro-broth dilution; format: cell-based; conditions: Streptococcus pneumoniae, 35° C., 24 hours, read-out: ANTIMICROBIAL ACTIVITY (MIC)
# Method: as §1, §2
# E. faecalis (29212) = assay: MIC, micro-broth dilution; format: cell-based; conditions: Enterococcus faecalis, 35° C., 24 hours, read-out: ANTIMICROBIAL ACTIVITY (MIC)
# Method: as §1, §2
# A. fumigatus (H29709) = assay: MIC, micro-broth dilution; format: cell-based; conditions: Aspergillus fumigatus, 35° C., 24 hours, read-out: ANTIMICROBIAL ACTIVITY (MIC)
# Method: as §1, §2
# E. cloacae (13047) = assay: MIC, micro-broth dilution; format: cell-based; conditions: Enterobacter cloacae, 35° C., 24 hours, read-out: ANTIMICROBIAL ACTIVITY (MIC)
# Method: as §1, §2
# E. coli (25922) = assay: MIC, micro-broth dilution; format: cell-based; conditions: Escherichia coli, 35° C., 24 hours, read-out: ANTIMICROBIAL ACTIVITY (MIC)
# Method: as §1, §2
# P. vulgaris (13315) = assay: MIC, micro-broth dilution; format: cell-based; conditions: Proteus vulgaris, 35° C., 24 hours, read-out: ANTIMICROBIAL ACTIVITY (MIC)
# Method: as §1, §2
# [2] = Hemolytic activity, minimal hemolytic concentration (MHC); format: cell-based, sheep;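 for MCC: MCC here is the minimal hemolytic concentration (MHC)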
# Method: (§3) Hemolytic activity of the squalamine mimics according to the present invention were also studied by incubating sheep red blood cells for 24 hours at 37° C. in saline (final concentration of 0.5%) with or without respective concentrations of the squalamine mimics. The minimal hemolytic concentration (MHC) was determined as the lowest concentration of a mimic that raised visible hemolysis.
# sheep red blood cells = assay: as above; format: cell-based
# Method: as §3
# S. aureus (H20809) = assay: MIC, micro-broth dilution; format: cell-based; conditions: Staphylococcus aureus, 24 h, read-out: ANTIMICROBIAL ACTIVITY (MIC)
# Method: as §1, §2
# S. aureus (25923) = assay: MIC, micro-broth dilution; format: cell-based; conditions: Staphylococcus aureus, 35° C., 24 hours, read-out: ANTIMICROBIAL ACTIVITY (MIC)
# Method: as §1, §2
Compound,MIC [1] [µg/mL],MIC (E. faecium (T6480-9)) [µg/mL],MIC (C. neoformans (M68979)) [µg/mL],MIC (K. pneumoniae (13883)) [µg/mL],MIC (S. marcescens (13880)) [µg/mL],MIC (S. pyrogenes (19615)) [µg/mL],MIC (S. epidermidis (12228)) [µg/mL],MIC (P. aeruginosa (2853)) [µg/mL],MIC (A. fumigatus (H1120)) [µg/mL],MIC (S. agalactiae (13813)) [µg/mL],MIC (C. albicans (90028)) [µg/mL],MIC (P. aeruginosa (10145)) [µg/mL],MIC (S. pneumoniae (6305)) [µg/mL],MIC (E. faecalis (29212)) [µg/mL],MIC (E. cloacae (13047)) [µg/mL],MIC (E. coli (25922)) [µg/mL],MIC (P. vulgaris (13315)) [µg/mL],other results
C[C@H](C(=O)NCCCCN)[C@H]1CC[C@H]2[C@@H]3CC=C4C[C@@H](O)CC[C@]4(C)[C@H]3CC[C@]12C [SM-3],> 100,–,–,–,–,–,–,–,–,–,–,–,–,–,–,–,–,–
C[C@H](C(=O)NCCCCN)[C@H]1CC[C@H]2[C@@H]3CC=C4C[C@@H](OS(=O)(=O)O)CC[C@]4(C)[C@H]3CC[C@]12C [SM-4],> 100,–,–,–,–,–,–,–,–,–,–,–,–,–,–,–,–,–
C[C@H](CCCNCCCNCCCCNCCCN)[C@H]1CC[C@H]2[C@@H]3CC[C@@H]4C[C@H](O)CC[C@]4(C)[C@H]3C[C@H](O)[C@]12C [SM-7H],–,6.25,0.39,12.5,12.5,0.39,0.39,3.13,12.5,0.78,6.25,3.13,1.56,6.25,12.5,6.25,6.25,"MIC (S. aureus (29213); S. aureus (29213), 35° C., 24 hours): 0.78 µg/mL; activity against S. marcescens (S. marcescens (13880); in words): found even against S. marcescens; also recorded: effective against S. marcescens; MIC (C. neoformans (90012)): 0.39 µg/mL; MIC (A. fumigatus (H29709)): 12.5 µg/mL; MCC at 24 h ([2]; sheep, red blood cells): 50 µg/mL; hemolytic activity (in words) (sheep red blood cells): unwanted hemolytic activity"
"C[C@H](CCC(=O)NCCCNCCCCNCCCN)[C@H]1CC[C@H]2[C@@H]3[C@H](O)C[C@@H]4C[C@H](O)CC[C@]4(C)[C@H]3C[C@H](O)[C@]12C [SM-13, cholic acid-spermine conjugate]",–,50,3.13,> 100,> 100,3.13,3.13,25,25,12.5,12.5,25,25,50,> 100,25,> 100,"antimicrobial activity (in words) [1]: lesser activity; also recorded: more activity than SM-8, SM-14, and SM-22; MIC (S. aureus (H20809)): 6.25 µg/mL; MIC (S. aureus (29213); 24 h): 12.5 µg/mL; MIC (S. aureus (25923)): 6.25 µg/mL; minimal hemolytic concentration (MHC) at 24 h ([2]; sheep red blood cells, 24 hours at 37° C. in saline): > 100 µg/mL"
C[C@H](CCC(=O)NCCCNCCCCNCCCN)[C@H]1CC[C@H]2[C@@H]3[C@H](OS(=O)(=O)O)C[C@@H]4C[C@H](OS(=O)(=O)O)CC[C@]4(C)[C@H]3C[C@H](OS(=O)(=O)O)[C@]12C [SM-14],> 100,–,–,–,–,–,–,–,–,–,–,–,–,–,–,–,–,–
